What is called IC50 is the concentration at which inhibition is half-maximal.

This note sets out measurements from ChEMBL document CHEMBL4480400, “Development of an N-Acyl Amino Acid That Selectively Inhibits the Glycine Transporter 2 To Produce Analgesia in a Rat Model of Chronic Pain” (J Med Chem, 2019).

Common to all, as to format: cell-based
For assay [1], the target named is T1, Sodium- and chloride-dependent glycine transporter 1 (Homo sapiens, UniProt P48067).
T1 sequence (P48067 whole entry): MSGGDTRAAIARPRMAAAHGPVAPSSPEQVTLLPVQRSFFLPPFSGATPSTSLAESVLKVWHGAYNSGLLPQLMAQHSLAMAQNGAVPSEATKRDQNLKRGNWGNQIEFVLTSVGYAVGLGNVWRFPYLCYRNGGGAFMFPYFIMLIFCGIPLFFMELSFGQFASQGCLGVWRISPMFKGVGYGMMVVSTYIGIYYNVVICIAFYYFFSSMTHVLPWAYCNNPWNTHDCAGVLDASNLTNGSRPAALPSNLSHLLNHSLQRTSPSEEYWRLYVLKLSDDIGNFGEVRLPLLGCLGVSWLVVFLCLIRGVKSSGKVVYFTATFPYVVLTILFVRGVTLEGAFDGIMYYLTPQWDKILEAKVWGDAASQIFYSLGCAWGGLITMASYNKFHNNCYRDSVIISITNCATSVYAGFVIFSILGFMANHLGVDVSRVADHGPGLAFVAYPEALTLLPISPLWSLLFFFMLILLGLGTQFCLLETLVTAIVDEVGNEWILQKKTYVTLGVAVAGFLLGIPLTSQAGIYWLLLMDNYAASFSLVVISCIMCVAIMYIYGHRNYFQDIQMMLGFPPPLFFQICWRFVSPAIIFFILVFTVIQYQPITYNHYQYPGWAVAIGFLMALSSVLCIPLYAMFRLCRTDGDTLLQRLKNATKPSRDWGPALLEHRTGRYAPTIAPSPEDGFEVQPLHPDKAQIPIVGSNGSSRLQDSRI
Briefly: Inhibition of recombinant human GlyT1b expressed in Xenopus laevis oocytes assessed as reduction in channel current by two-electrode voltage clamp electrophysiology. (In two-electrode clamp one electrode senses voltage and the other passes current.)

Assay [2] has as its target T2, Sodium- and chloride-dependent glycine transporter 2 (Homo sapiens, UniProt Q9Y345).
T2 sequence (Q9Y345 whole entry): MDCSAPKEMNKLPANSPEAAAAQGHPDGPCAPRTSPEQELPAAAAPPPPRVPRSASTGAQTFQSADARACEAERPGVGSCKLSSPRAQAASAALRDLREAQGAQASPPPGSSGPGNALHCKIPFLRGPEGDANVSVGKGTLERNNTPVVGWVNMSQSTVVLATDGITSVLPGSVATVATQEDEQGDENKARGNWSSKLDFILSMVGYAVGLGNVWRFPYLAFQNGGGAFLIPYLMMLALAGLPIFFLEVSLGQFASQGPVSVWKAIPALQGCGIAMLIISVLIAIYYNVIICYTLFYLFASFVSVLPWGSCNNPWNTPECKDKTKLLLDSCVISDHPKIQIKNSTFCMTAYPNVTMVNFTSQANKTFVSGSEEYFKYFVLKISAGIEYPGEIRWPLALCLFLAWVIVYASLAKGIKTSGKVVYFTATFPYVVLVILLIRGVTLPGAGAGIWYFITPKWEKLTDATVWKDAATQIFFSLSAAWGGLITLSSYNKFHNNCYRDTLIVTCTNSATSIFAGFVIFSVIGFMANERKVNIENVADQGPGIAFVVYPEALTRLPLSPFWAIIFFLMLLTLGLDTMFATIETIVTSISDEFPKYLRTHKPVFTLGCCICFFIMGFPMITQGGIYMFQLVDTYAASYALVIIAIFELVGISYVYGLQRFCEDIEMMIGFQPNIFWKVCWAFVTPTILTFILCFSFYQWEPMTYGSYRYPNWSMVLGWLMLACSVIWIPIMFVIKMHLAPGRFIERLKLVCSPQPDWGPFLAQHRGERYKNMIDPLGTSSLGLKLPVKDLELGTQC
Briefly: Inhibition of recombinant human GlyT2a expressed in Xenopus laevis oocytes assessed as reduction in channel current by two-electrode voltage clamp electrophysiology.

Assay [3] deals with T3, Sodium- and chloride-dependent glycine transporter 2 (Homo sapiens) (UniProt Q9Y345).
T3 sequence (whole entry): T2 sequence (Q9Y345 whole entry)
Briefly: Inhibition of recombinant human GlyT2a expressed in Xenopus laevis oocytes assessed as reduction in channel current by two-electrode voltage clamp electrophysiology relative to control.

Turning to `CCCCCCCC/C=C\CCCCCCCC(=O)N[C@@H](Cc1c[nH]c2ccccc12)C(=O)O`, the IC50 is above 10000 nM in assay [1] and 54.6 nM in assay [2]. The Imax in assay [3] stood at 86.2%.
As for `CCCCCCCC/C=C\CCCCCCCC(=O)N[C@@H](CCN)C(=O)O`, the IC50 in assay [1] was above 3000 nM; in assay [2], 152 nM. Moreover, the Imax in assay [3] was 82.7%.
Consider `CCCCCCCC/C=C\CCCCCCCC(=O)N[C@H](Cc1c[nH]c2ccccc12)C(=O)O`, for which the IC50 in assay [1] and in assay [2] was above 10000 nM each time. For the same compound, the Imax in assay [3] came out at 14.2%.
On to `CCCCCCCC/C=C\CCCCCCCC(=O)N[C@@H](CC(=O)O)C(=O)O`, for which the IC50 is above 10000 nM in assay [1] and 865 nM in assay [2]. Also, the Imax in assay [3] is 76.7%.
For the compound `CCCCCCCC/C=C\CCCCCCCC(=O)N[C@@H](CCCC)C(=O)O`, the half-maximal inhibitory concentration (IC50) is above 10000 nM in assay [1] and 259 nM in assay [2]. Besides, the Imax in assay [3] is 64.5%.
The corresponding values for `CCCCCCCC/C=C\CCCCCCCC(=O)N[C@H](CO)C(=O)O` are above 3000 nM, 64.8 nM and 73.6%.
On the same counts, the results for `CCCCCCCC/C=C\CCCCCCCC(=O)N[C@H](CCc1ccccc1)C(=O)O` are above 10000 nM, above 10000 nM and 10.2%.
The corresponding values for `CCCCCCCC/C=C\CCCCCCCC(=O)N[C@@H](CC(N)=O)C(=O)O` are above 10000 nM, 613 nM and 92.7%.
For the compound `CCCCCCCC/C=C\CCCCCCCC(=O)N[C@@H](CCSC)C(=O)O`, the IC50 in assay [1] is above 3000 nM; in assay [2], 29.2 nM. In assay [3], the Imax was found to be 91.2%.
On the same counts, the results for `CCCCCCCC/C=C\CCCCCCCC(=O)N[C@H](C(=O)O)C(C)C` are above 30000 nM, 1170 nM and 90.1%.
On to `CCCCCCCC/C=C\CCCCCCCC(=O)N[C@H](Cc1ccccc1)C(=O)O`, for which the 50% inhibitory concentration (IC50) in assay [1] and in assay [2] was above 10000 nM each time. In addition, in assay [3], the Imax amounted to 42.3%.
Turning to `CCCCCCCC/C=C\CCCCCCCC(=O)N[C@@H](CCCN)C(=O)O`, the results for the 50% inhibitory concentration (IC50) in assay [1] and in assay [2] were above 3000 nM and 31.6 nM, respectively. The Imax in assay [3] was found to be 86%.
The corresponding values for `CCCCCCCC/C=C\CCCCCCCC(=O)N[C@@H](CCCCN)C(=O)OC` are above 3000 nM, 91.3 nM and 78.8%.
`CCCCCCCC/C=C\CCCCCCCC(=O)N[C@@H](CCc1ccccc1)C(=O)O`: the IC50 was above 10000 nM in assay [1] and 151 nM in assay [2]. Also, the Imax in assay [3] was 75.1%.
On the same counts, the results for `CCCCCCCC/C=C\CCCCCCCC(=O)N[C@H](CC(=O)O)C(=O)O` are above 10000 nM, 1810 nM and 92.5%.
On the same counts, the results for `CCCCCCCC/C=C\CCCCCCCC(=O)N[C@H](CC(C)C)C(=O)O` are above 30000 nM, above 30000 nM and 35.6%.
As to `CCCCCCCC/C=C\CCCCCCCC(=O)N[C@@H](CCCNC(=N)N)C(=O)O`, the values for the IC50 in assay [1] and in assay [2] were above 3000 nM and 47.9 nM, respectively. For the same compound, the Imax in assay [3] is 87.2%.
As to `CCCCCCCC/C=C\CCCCCCCC(=O)N[C@@H](C(=O)O)C(C)C`, the half-inhibitory concentration (IC50) in assay [1] is above 30000 nM; in assay [2], 1000 nM. Also, the Imax in assay [3] was found to be 56.7%.
The corresponding values for `CCCCCCCC/C=C\CCCCCCCC(=O)N[C@@H](Cc1cnc[nH]1)C(=O)O` are above 3000 nM, 130 nM and 78.4%.
The corresponding values for `CCCCCCCC/C=C\CCCCCCCC(=O)N[C@@H](C)C(=O)O` are above 30000 nM, 1230 nM and 89.8%.
The corresponding values for `CCCCCCCC/C=C\CCCCCCCC(=O)N[C@@H](Cc1ccccc1)C(=O)O` are above 10000 nM, 214 nM and 54.7%.
For the compound `CCCCCCCC/C=C\CCCCCCCC(=O)N[C@@H](CC(C)C)C(=O)O`, the IC50 in assay [1] is above 10000 nM; in assay [2] it was 143 nM. The Imax in assay [3] turned out to be 72.2%.
